Measurements published in publication PMC11459923, “Identification of novel and potent inhibitors of SARS-CoV-2 main protease from DNA-encoded chemical libraries” (Antimicrobial Agents and Chemotherapy, 2024).

Molecular target: SARS-CoV-2 M^pro (Severe acute respiratory syndrome coronavirus 2, UniProt P0DTD1)
Assay: In vitro FRET enzymatic assay (screening at 1 µM and SAR IC50)
Assay type: biochemical
Details: for inhibition at 1 µM: read-out: M^pro inhibition % (comp. conc. 1 µM)

Structure (SMILES)	inhibition at 1 µM	IC50 (IC50 ± SEM)	M^pro inhibition % (comp. conc. 1 µM)	IC50 (IC50 M^pro)
N#Cc1cc(C(=O)N[C@H](CC2CCC2)C(=O)N[C@H](CC(=O)N[C@H](Cc2ccc(Cl)cc2)C(=O)O)Cc2c[nH]c3ccccc23)ccn1 [MP4]	~30%	–	–	–
N#Cc1cc(C(=O)N[C@H](CC2CCC2)C(=O)N[C@H](CC(=O)N[C@H](Cc2ccncc2)C(=O)NCc2ccccc2)Cc2c[nH]c3ccccc23)ccn1 [MP12]	96.5%	–	–	–
CCCC[C@@H](NC(=O)c1ccnc(C#N)c1)C(=O)N[C@H](CC(=O)N[C@H](Cc1ccncc1)C(=O)O)Cc1c[nH]c2ccccc12 [MP9]	86.6%	–	–	–
N#Cc1cc(C(=O)N[C@H](CC2CCC2)C(=O)N[C@H](CC(=O)N[C@H](Cc2ccncc2)C(=O)NCCN2CCOCC2)Cc2c[nH]c3ccccc23)ccn1 [MP13]	94.2%	0.047 ± 0.006 µM	–	–
O=Cc1cccc(C(=O)N[C@H](CC2CCC2)C(=O)N[C@H](CC(=O)N[C@H](Cc2ccncc2)C(=O)O)Cc2c[nH]c3ccccc23)c1 [MP7]	100%	–	–	–
N#Cc1cc(C(=O)N[C@H](CC2CCC2)C(=O)N[C@H](CC(=O)N[C@H](Cc2ccncc2)C(=O)NCc2cccc(Cl)c2)Cc2c[nH]c3ccccc23)ccn1 [MP15]	66.8%	–	–	–
CC(=O)c1cccc(C(=O)N[C@H](CC2CCC2)C(=O)N[C@H](CC(=O)N[C@H](Cc2ccncc2)C(=O)O)Cc2c[nH]c3ccccc23)c1 [MP8]	~18%	–	18.2%	–
N#Cc1cc(C(=O)N[C@H](CC2CCC2)C(=O)N[C@H](CC(=O)N[C@H](Cc2ccncc2)C(=O)NCCc2c[nH]c3ccccc23)Cc2c[nH]c3ccccc23)ccn1 [MP16]	94.7%	0.033 ± 0.003 µM	–	0.047 µM
N#Cc1cc(C(=O)N[C@H](CC2CCC2)C(=O)N[C@H](CC(=O)N[C@H](Cc2ccncc2)C(=O)NCc2ccccn2)Cc2c[nH]c3ccccc23)ccn1 [MP14]	98.2%	0.045 ± 0.009 µM	–	–
N#Cc1cc(C(=O)N[C@H](CC2CCC2)C(=O)NCCC(=O)N[C@H](Cc2ccncc2)C(=O)O)ccn1 [MP5]	~8%	–	8.1%	–
N#Cc1cc(C(=O)N[C@H](CC2CCC2)C(=O)N[C@H](CC(=O)N[C@H](Cc2ccncc2)C(=O)O)Cc2c[nH]c3ccccc23)ccn1 [MP1]	97%	–	–	–
N#Cc1cc(C(=O)N[C@H](CC2CCC2)C(=O)N[C@H](CC(=O)N[C@H](Cc2ccccc2)C(=O)O)Cc2c[nH]c3ccccc23)ccn1 [MP3]	~30%	–	30.4%	–
N#Cc1cc(C(=O)N[C@H](Cc2ccc(Cl)c(Cl)c2)C(=O)N[C@H](CC(=O)N[C@H](Cc2ccncc2)C(=O)O)Cc2c[nH]c3ccccc23)ccn1 [MP11]	90.7%	0.069 ± 0.004 µM	–	–
N#Cc1cc(C(=O)N[C@H](Cc2ccc(Cl)cc2)C(=O)N[C@H](CC(=O)N[C@H](Cc2ccncc2)C(=O)O)Cc2c[nH]c3ccccc23)ccn1 [MP10]	95.7%	0.071 ± 0.007 µM	–	–
N#Cc1cccc(C(=O)N[C@H](CC2CCC2)C(=O)N[C@H](CC(=O)N[C@H](Cc2ccncc2)C(=O)O)Cc2c[nH]c3ccccc23)c1 [MP6]	~18%	–	17.8%	–
N#Cc1cc(C(=O)N[C@H](CC2CCC2)C(=O)N[C@H](CC(=O)O)Cc2c[nH]c3ccccc23)ccn1 [MP2]	~2%	–	2.2%	–
